# Experiments:
# [1] = target: T1, CB1 receptor (Homo sapiens, UniProt P21554); test: [35S]-GTPγS binding assay on membranes from cells stably transfected with the CB1 gene, inhibition of CP55940 (EC80); type: biochemical; conditions: half maximal inhibition of GTPγS binding in presence of EC80 concentration of agonist CP55940; CB1-transfected cell membranes
# T1 construct: expressed in transfected cells
# Protocol: Compounds of the present invention are active against the receptor product of the CB1 gene. The affinity of the compounds of the invention for central cannabinoid receptors is demonstrable in methods described in Devane et al, Molecular Pharmacology, 1988, 34, 605 or those described in WO01/70700 or EP 656354. Alternatively the assay may be performed as follows.
# 10 μg of membranes prepared from cells stably transfected with the CB1 gene were suspended in 200 μl of 100 mM NaCl, 5 mM MgCl2, 1 mM EDTA, 50 mM HEPES (pH 7.4), 1 mM DTT, 0.1% BSA and 100 μM GDP. To this was added an EC80 concentration of agonist (CP55940), the required concentration of test compound and 0.1 μCi [^35S]-GTPγS. The reaction was allowed to proceed at 30° C. for 45 min. […] Filters were then covered with scintilant and counted for the amount of [^35S]-GTPγS retained by the filter.
# Activity is measured in the absence of all ligands (minimum activity) or in the presence of an EC80 concentration of CP55940 (maximum activity). […] At various concentrations of novel ligand, activity is calculated as a percentage of the maximum activity and plotted. The data are fitted using the equation y=A+((B−A)/1+((C/x)UD)) and the IC50 value determined as the concentration required to give half maximal inhibition of GTPγS binding under the conditions used.
# T1 sequence (P21554 whole entry): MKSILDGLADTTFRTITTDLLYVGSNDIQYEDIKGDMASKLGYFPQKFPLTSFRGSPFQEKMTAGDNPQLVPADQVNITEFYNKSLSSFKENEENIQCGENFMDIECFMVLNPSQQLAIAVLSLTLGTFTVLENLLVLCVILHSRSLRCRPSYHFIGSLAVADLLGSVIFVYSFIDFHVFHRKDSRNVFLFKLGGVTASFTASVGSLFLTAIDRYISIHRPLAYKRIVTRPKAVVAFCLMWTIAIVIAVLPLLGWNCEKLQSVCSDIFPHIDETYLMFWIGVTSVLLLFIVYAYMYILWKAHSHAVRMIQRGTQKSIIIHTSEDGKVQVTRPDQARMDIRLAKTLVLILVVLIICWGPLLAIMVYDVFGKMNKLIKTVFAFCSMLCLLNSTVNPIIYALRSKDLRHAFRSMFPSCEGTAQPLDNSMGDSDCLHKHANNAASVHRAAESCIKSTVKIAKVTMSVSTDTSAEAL
Compound,melting point [°C],IC50 [1] [nM]
"CCCS(=O)(=O)Oc1ccc(-c2c(C)c(C(=O)NN3CCCCC3)nn2-c2ccc(Cl)cc2Cl)cc1 [Example 1, Propane-1-sulfonic acid 4-[2-(2,4-dichlorophenyl)-4-methyl-5-(piperidin-1-ylcarbamoyl)2H-pyrazol-3-yl]-phenyl Ester]",190,–
"CCCS(=O)(=O)Oc1ccc(-c2c(C)c(C(=O)NC3(C(=O)OC)CCCC3)nn2-c2ccc(Cl)cc2Cl)cc1 [Example 10, Methyl 1-{[(1-(2,4-dichlorophenyl)-4-methyl-5-{4[(propylsulfonyl)oxy]phenyl}-1H-pyrazol-3-yl)carbonyl]amino}cyclopentanecarboxylate]",–,6
"CCCOC(=O)Oc1ccc(-c2c(C)c(C(=O)NN3CCCCC3)nn2-c2ccc(Cl)cc2Cl)cc1 [Example 11, Carbonic acid 4-[2-(2,4-dichlorophenyl)-4-methyl-5-(piperidine-1-ylcarbamoyl)-2H-pyrazol-3-yl]-phenyl Ester Propyl Ester]",–,6.4

# From patent publication US20090149463A1, “Therapeutic agents” (priority 2004, published 2009)
